Values of other authors as cited in US20200093783A1, “Preparation and Anti-HepG2 Application for Urushiol-Based pH Response Micelle Encapsulating Paclitaxel” (Nanjing Zhongsen Biological Technology Co., Ltd., priority 2019, published 2020).

Tested on: most of tumor cells
Conditions: background statement

urushiol
IC50 (50% inhibiting concentration): 4 µg/mL
